According to patent publication US11358933B2, “Compounds and methods for inhibiting CYP26 enzymes” (Queen's University at Kingston, priority 2017, dated 2022):

What was measured:
MC3T3 cells = experiment: RA metabolism by MC3T3 pre-osteoblasts; type: cell-based, mouse
Description: These experiments are to assess the ability of primary cells, or cell lines to metabolize RA, and to determine the effect of inhibition of CYP26A1 or CYP26B1 on this ability. For these experiments, cells are plated into 48-well plates and treated with a radiolabeled (^3H) RA. The extent of conversion of this labeled RA to water soluble metabolites is determined as above for in the cell-based inhibitor assay. Primary human bone marrow stromal cells (available from Lonza) were cultured in MyeloCult (available from Stem Cell Technologies, Vancouver, Canada). Mouse OP9 bone marrow stromal cells and MC3T3 pre-osteoblasts were cultured as above. Cells are plated in the appropriate culture medium and allowed to form a monolayer. Cells are then pre-treated with either DMSO (vehicle control) or RA (1 μM) for 24 hours to induce CYP26 expression. Vehicle, and RA induced cells are then exposed to ^3H-RA in the presence or absence of test CYP26 inhibitor to examine the effects on RA metabolism. Cells are incubated for 3 hours with labeled RA, and metabolites extracted and analyzed as above.

[1] = tested on: RA target gene (CYP26A1) expression in MCF-7 cells; experiment: Enhancement of RA activity assay, QPCR of CYP26A1 expression in MCF-7 cells; type: cell-based; conditions: 0.1 μM RA plus 1 μM compound, 24, 48, 72 hours
Description: An RA activity assay was used to measure the ability of compounds that inhibit CYP26 to enhance activity of RA, for example, by limiting its catabolism. This assay measured expression of endogenous RA target genes in MCF-7 cells that have been treated with RA and a compound of interest. A compound that inhibits CYP26 activity will have the effect of prolonging the induction of RA target genes in response to RA.
Exponentially growing MCF-7 cells were treated with trypsin, collected and plated into 6-well culture dishes at 300,000 cells per well. Once cells had reached confluency, they were treated with CYP26 inhibitor test compounds or with ketoconazole (a non-selective CYP inhibitor) at a final concentration of 1 μM, or an equal volume of DMSO as a control. […] RNA was harvested using Trizol reagent after 24, 48, and 72 hours of treatment. cDNA was synthesized from 2 μg of total RNA using Superscript III cDNA synthesis kit with random priming (available from Life Technologies, Burlington, ON, Canada). Analysis of expression of the RA inducible CYP26A1 gene was quantified by qPCR normalized against expression of PMM2 with Sybr Select Master Mix (Life Technologies) and gene specific primers in a two-step thermal cycling reaction. Data is provided for a CYP26B1 selective inhibitor, which enhances the induction of CYP26A1. […]

`CC(C)(C)c1cccc(-c2cc3cc(/C=C/C(=O)O)ccc3[nH]2)c1` [Compound 026] was tested, and the “RA metabolism, basal and RA-induced” value (MC3T3 cells) was “block basal as well as RA-induced RA metabolism in these cells in a dose-dependent manner” and the “RA target gene transcription on co-treatment with RA” value [1] was “enhanced RA target gene transcription, and prolonged this response to at least 72 hours”.
